In US20070203212A1, “METHOD OF TREATING OSTEOARTHRITIS” (WARNER-LAMBERT COMPANY, priority 2002, published 2007):
Entries after “also recorded” stand apart in the source; their conditions may differ. Marks after values point to notes of the source that are not given here.

Legend:
Type in all cases: in vivo
[1] = tested on: monoclonal antibody-induced arthritis; assay: Monoclonal antibody-induced arthritis (MAIA) mouse model, footpad and ankle swelling; conditions: p<0.05 (FIG. 8)
Protocol: In a typical MAIA experiment, groups of four mice were injected intraperitoneally (“i.p.”) with 0.4 mL (BALB/c and DBA/1 strains) or 0.8 mL (C57BL/6, 129X1/SvJ, C3H/HeJ, and C3H/FeJ strains) with a 10 mg/mL solution of Arthrogen-CIA Monoclonal Antibody Blend (Chemicon International, Inc.). Two days later, the mice were injected i.p. with 0.2 mL of a 0.25 mg/mL solution of LPS (lipopolysaccharide form Escherichia coli (“E. coli”) strain 0111B4) in PBS. Footpad and ankle size was assessed using a Dyer Digital Caliper (#655-030-4916) on the day of mAb injection, and every two days following LPS injection.

[2] = tested on: monosodium iodoacetate (MIA)-induced osteoarthritis; assay: MIA rat model, chronic oral b.i.d. dosing: change in hind paw weight distribution (joint function limitation / joint pain); conditions: for IJFL (Inhibition of Joint Function Limitation) (% +/− SEM): four week study; for change in hind paw weight distribution: Days 7, 14 and 28 (FIG. 3); for inhibition of change in hind paw weight distribution: 30 mg/kg PO b.i.d.
Protocol: It should be appreciated that in Biological Methods 1, 2, 4, and 5 below, hind paw weight bearing differentials between the paw of the limb having the control joint (in animals administered test compound vehicle only) and the paw of the limb having the contralateral test joint (in control or inducement animals administered test compound vehicle only and in treatment animals administered test compound dissolved in test compound vehicle) were determined using an incapacitance tester, model 2KG (Linton Instrumentation, Norfolk, United Kingdom). The incapacitance tester has a chamber on top with an outwardly sloping front wall that supports a rat's front limbs, and two weight sensing pads, one for each hind paw, that facilitates this determination. The hind paw weight bearing differentials were expressed in grams and calculated as follows: (the average weight in grams placed on the control limb minus the average weight in grams placed on the contralateral test limb for each of the inducement or treatment animals) minus (the average weight in grams placed on the control limb minus the average weight in grams placed on the contralateral test limb for each of the control animals). All results were statistically analyzed by comparing the average results for an induction or treatment group with the average result for its control group at the same time point using analysis of covariance (“ANCOVA”) followed by the Hoehberg's procedure and those with statistical significance had p<0.05 unless otherwise noted.
Generally, In the MIA Rat model on Day 0, the hind-paw weight differential between the right arthritic joint and the left healthy joint of male Wistar rats (150 g) are determined with an incapacitance tester, model 2KG (Linton Instrumentation, Norfolk, United Kingdom). The incapacitance tester has a chamber on top with an outwardly sloping front wall that supports a rat's front limbs, and two weight sensing pads, one for each hind paw, that facilitates this determination. Then the rats are anesthetized with isofluorine, and the right, hind leg knee joint is injected with 1.0 mg of mono-iodoacetate (“MIA”) through the infrapatellar ligament. Injection of MIA into the joint results in the inhibition of glycolysis and eventual death of surrounding chondrocytes. The rats are further administered either an active compound useful in the invention method, or a pharmaceutically acceptable salt thereof, or vehicle (in the instant case, water) daily for 14 days or 28 days. The substituted dialkyl ether, substituted aryl-alkyl ether, substituted dialkyl thioether, substituted dialkyl ketone, or substituted-alkyl compound useful in the invention method, or a pharmaceutically acceptable salt thereof, is typically administered at a dose of 30 mg of substituted dialkyl ether, substituted aryl-alkyl ether, substituted dialkyl thioether, substituted dialkyl ketone, or substituted-alkyl compound useful in the invention method, or a pharmaceutically acceptable salt thereof, per kilogram of rat per day (30 mg/kg/day), but may be administered at other doses such as, for example, mg/kg/day, 60 mg/kg/day, 90-mg/kg/day, or 100 mg/kg/day according to the requirements of the compound being studied. It is well within the level of ordinary skill in the pharmaceutical arts to determine a proper dosage of an active compound useful in the invention method, or a pharmaceutically acceptable salt thereof, in this model. Administration of the substituted dialkyl ether, substituted aryl-alkyl ether, substituted dialkyl thioether, substituted dialkyl ketone, or substituted-alkyl compound useful in the invention method, or a pharmaceutically acceptable salt thereof, in this model is optionally by oral administration or intravenous administration via an osmotic pump. After 7 and 14 days for a two week study, or 7, 14, and 28 days for a four week study, the hind-paw weight distribution is again determined. […]

[3] = tested on: monosodium iodoacetate (MIA)-induced osteoarthritis; assay: MIA rat model, chronic oral b.i.d. dosing: tibial plateau cartilage erosion analysis; conditions: for Decreased Erosion Size (statistically significant decrease in size of area of joint erosion) / SDCES (Significant Decrease In Cartilage Erosion Severity), Ridit analysis: 28 days; for SDCES (Significant Decrease In Cartilage Erosion Severity), Ridit analysis: calcium salt
Protocol: In a particular experiment, monosodium iodoacetate (“MIA”) (1 mg/joint) was injected through the infrapatellar ligament of the right knee of anesthetized male, Wistar rats. The contralateral control knee was injected with 50 μL of physiologic saline. The change in hind paw weight distribution, as determined by use of an incapacitance tester, between the right (arthritic) and left (contralateral control) knees was utilized as an index of functional limitation in the arthritic knee. Limitations in joint function were determined on Days 7, 14, and 28 following induction of arthritis. Following sacrifice, erosion severity was determined on the tibial plateaus from the arthritic joint. Histological analysis was also conducted on these samples.
The ridit analysis was used to determine differences in overall erosion severity. This parameter takes into account both the erosion grade (0=no erosion, I=erosion extending into the superficial or middle layers, or II=deep layer erosion), and area (small, medium and large, quantified by dividing the area of the largest erosion in each score into thirds) simultaneously.
After administering CI-1027 b.i.d. for 4 weeks, the rats were euthanized by CO2 administration. The soft tissue was removed from the right (arthritic) leg, the joint was disarticulated, and the meniscus was carefully removed to expose the surface of the tibial plateau. The tibia was removed and placed in physiologic saline until erosion analysis was performed. Tibial plateau erosions were analyzed the same day as the sacrifice as follows. Each plateau was dipped in India ink for approximately 30 seconds to help define the erosions, rinsed in saline, and blotted on a paper towel. A stereomicroscope equipped with a digital camera was used to photograph each plateau. The tibial plateaus were photographed and graded separately by two ordinary skilled persons using the following system:
Grade I=erosion extending into the superficial or middle layers;
Grade II=deep layer erosion; no cartilage, sub-chondral bone exposed.
The photographs were transferred to a computer for image analysis using a Zeiss KS 300 Image Analysis System to determine the total erosion area for each grade, expressed in square millimeters (“mm^2”). A RIDIT analysis (see above) was used to determine differences in overall erosion severity. This analysis takes into account both the erosion grade and area (small, medium and large, quantified by dividing the area of the largest erosion in each score into thirds) simultaneously.

[4] = 30 mg/kg PO BID, dose-response experiment

Structure (SMILES): CC(C)(CCCCOCCCCC(C)(C)C(=O)[O-])C(=O)[O-].[Ca+2] [CI-1027, 6-(5-carboxy-5-methyl-hexyloxy)-2,2-dimethyl-hexanoic acid, calcium salt]
- change in mouse ankle joint and paw swelling ([1]; 100 mg/kg oral daily, Day 7): inhibits a change in mouse ankle joint and paw swelling
- change in mouse ankle joint and paw swelling ([1]; 200 mg/kg oral daily, Days 4, 7 and 9): inhibits a change in mouse ankle joint and paw swelling
- IJFL (Inhibition of Joint Function Limitation) (% +/− SEM) ([2]; 3 mg/kg PO BID): 3 +/− 156%
- change in hind paw weight distribution ([2]; 3 mg/kg PO b.i.d.): no statistically significant changes
- IJFL (Inhibition of Joint Function Limitation) (% +/− SEM) ([2]; 10 mg/kg PO BID): 36 +/− 9%
- change in hind paw weight distribution ([2]; 10 mg/kg PO b.i.d.): no statistically significant changes
- IJFL (Inhibition of Joint Function Limitation) (% +/− SEM) [2, 4]: 63 +/− 8^a %
- IJFL (Inhibition of Joint Function Limitation) (% +/− SEM) ([2]; 30 mg/kg PO BID, single-dose-level experiment (last table row)): 60 +/− 8^a %
- inhibition of change in hind paw weight distribution ([2]; Day 7, dose-response experiment (FIG. 3), not significant): 38±14%
- inhibition of change in hind paw weight distribution ([2]; Day 7, first experiment (FIG. 2)): 47±8%
- inhibition of change in hind paw weight distribution ([2]; Day 14, dose-response experiment (FIG. 3)): 50±10%
- inhibition of change in hind paw weight distribution ([2]; Day 14, first experiment (FIG. 2)): 71±9%
- inhibition of change in hind paw weight distribution ([2]; Day 28, dose-response experiment (FIG. 3)): 62±8%
- inhibition of change in hind paw weight distribution ([2]; Day 28, first experiment (FIG. 2)): 60±8%
- Decreased Erosion Size (statistically significant decrease in size of area of joint erosion) ([3]; 3 mg/kg PO BID): No
- SDCES (Significant Decrease In Cartilage Erosion Severity), Ridit analysis ([3]; 3 mg/kg PO BID): statistically significant inhibitory effect; also recorded: Yes^f
- Decreased Erosion Size (statistically significant decrease in size of area of joint erosion) ([3]; 10 mg/kg PO BID): Yes^c
- SDCES (Significant Decrease In Cartilage Erosion Severity), Ridit analysis ([3]; 10 mg/kg PO BID): significantly decrease cartilage erosion severity; also recorded: statistically significant inhibitory effect; also recorded: Yes^e
- decrease in total erosion area (regardless of grade) ([3]; 10 mg/kg PO b.i.d. 28 days, dose-response experiment (FIG. 5), statistically significant): 62.4%
- Decreased Erosion Size (statistically significant decrease in size of area of joint erosion) [3, 4]: No
- SDCES (Significant Decrease In Cartilage Erosion Severity), Ridit analysis [3, 4]: significantly decrease cartilage erosion severity; also recorded: significantly decreased the degree of structural damage to the cartilage; also recorded: statistically significant inhibitory effect; also recorded: Yes^d
- Decreased Erosion Size (statistically significant decrease in size of area of joint erosion) ([3]; 30 mg/kg PO BID, single-dose-level experiment): No
- SDCES (Significant Decrease In Cartilage Erosion Severity), Ridit analysis ([3]; 30 mg/kg PO BID, single-dose-level experiment (p = 0.100)): no statistically significant effect and No^g
- treated rats with no erosions ([3]; 30 mg/kg PO b.i.d. 28 days, first experiment, N=12): 5 of the 12
- decrease in total erosion area (regardless of grade) ([3]; 30 mg/kg PO b.i.d. 28 days, first experiment, not statistically significant (p=0.179)): 43%
